# Data taken from article PMC12216609, “Inhibitors of eIF1A-ribosome interaction unveil uORF-dependent regulation of translation initiation and antitumor and antiviral effects” (The EMBO Journal, 2025).
# Where “and” joins values, the source holds several entries; their conditions need not be identical. Equal values may be shown once. Read-outs that look alike come from different tables or passages of the source.
# How the values were obtained:
# eIF1A-RPS10 interaction = target: T1, eIF1A-RPS10 interaction (Homo sapiens, UniProt P46783+P47813); experiment: Split-Renilla luciferase eIF1A-RPS10 interaction screen, dose-response; type: biochemical
# T1 construct: made in house; host or cells: E. coli BL21 (PRSFduet); unpurified lysate supernatant
# In short: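 eIF1A (C-terminus fused to N-terminal Renilla fragment, N-terminal tail left free) and RPS10 fused to the C-terminal Renilla fragment were expressed in BL21 E. coli (0.5 mM IPTG, overnight at 16 °C). Clarified lysates in TKE buffer served as the source of reconstituted luciferase activity; loss of signal indicated disrupted interaction.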
# RPS10 = target: T2, RPS10 (Homo sapiens, UniProt P46783); type: binding; conditions: for RPS10 IC50: fluorescence binding
# T2 construct: made in house; host or cells: E. coli BL-21
# [1] = system: cap-proximal AUG GFP reporter in HEK293T cells; type: cell-based; conditions: GFP WB densitometry; 20 µM overnight; dmso 0.965946;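 also: ratio of upstream to downstream AUG initiation products on GFP Western blot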
# eIF1A = target: T3, eIF1A (Homo sapiens, UniProt P47813); type: binding; conditions: for fluorescence ratio, eIF1A: background-corrected, relative to DMSO or lowest 1Ai concentration, replicate columns; for WT eIF1A IC50: fluorescence binding
# T3 construct: His-bdSUMO (cleaved yes); made in house; host or cells: E. coli BL-21
# [2] = summary table, read-out: IC50 concentration (µM), IC50 screen
# [3] = summary table, fluorescence binding assay
# [4] = eIF1A, from the titration data, read-out: IC50 (eIF1A titration block)
# [5] = summary table, fluorescence binding assay, read-out: IC50 concentration (µM), WT eIF1A
# [6] = read-out: IC50 (line under RPS10 binding data)
# [7] = summary table, fluorescence binding assay, read-out: IC50 concentration (µM), RPS10
# T1 sequence (P47813 whole entry, one chain of several): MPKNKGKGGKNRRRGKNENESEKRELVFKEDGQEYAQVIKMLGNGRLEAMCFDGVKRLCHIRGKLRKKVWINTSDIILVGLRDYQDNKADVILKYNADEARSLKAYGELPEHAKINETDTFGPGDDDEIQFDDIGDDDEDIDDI
# T3 sequence (P47813 whole entry): as the sequence (P47813 whole entry, one chain of several) above
Compound,IC50 (eIF1A-RPS10 interaction; [2]) [µM],RPS10 fluorescence ratio to control (RPS10; 1Ai conc. 0.25 uM),RPS10 fluorescence ratio to control (RPS10; 1Ai conc. 0.5 uM),RPS10 fluorescence ratio to control (RPS10; 1Ai conc. 2 uM),RPS10 fluorescence ratio to control (RPS10; 1Ai conc. 4 uM),RPS10 fluorescence ratio to control (RPS10; 1Ai conc. 8 uM),RPS10 fluorescence ratio to control (RPS10; 1Ai conc. 16 uM),RPS10 fluorescence ratio to control (RPS10; 1Ai conc. 32 uM),RPS10 fluorescence ratio to control (RPS10; 1Ai conc. 64 uM),RPS10 fluorescence ratio to control (RPS10; 1Ai conc. 256 uM),"US/DS ratio, average [1]","fluorescence ratio, eIF1A (eIF1A; 1Ai conc. 0.25 uM)","fluorescence ratio, eIF1A (eIF1A; 1Ai conc. 1 uM)","fluorescence ratio, eIF1A (eIF1A; 1Ai conc. 2 uM)","fluorescence ratio, eIF1A (eIF1A; 1Ai conc. 4 uM)","fluorescence ratio, eIF1A (eIF1A; 1Ai conc. 8 uM)","fluorescence ratio, eIF1A (eIF1A; 1Ai conc. 16 uM)","fluorescence ratio, eIF1A (eIF1A; 1Ai conc. 32 uM)","fluorescence ratio, eIF1A (eIF1A; 1Ai conc. 64 uM)","fluorescence ratio, eIF1A (eIF1A; 1Ai conc. 256 uM)",further results
COc1ccc2oc(C(=O)OC(C)C(=O)Nc3sccc3C(N)=O)c(C)c2c1 (centres unmarked) [1Ai-3044],10,1,1.015,1.108,1.108,1.07,0.983,0.9928,1.135,1.327,0.9145,0.7896 and 0.9625,0.783 and 0.965,1.321 and 0.9132,1.411 and 0.9093,1.361 and 0.8279,1.171 and 0.7406,1.256 and 0.7959,1.351 and 0.8195,1.419 and 0.8072,"IC50 (eIF1A-RPS10 interaction; Appendix Table S1, read-out: IC50 from the split RL screen): 15 µM; RPS10 IC50 (RPS10): No binding; IC50 concentration (µM), RPS10 (RPS10; [3]): No binding; fluorescence ratio, eIF1A (eIF1A; 1Ai conc. 0.5 uM): 0.8401 and 0.9684; WT eIF1A IC50 (eIF1A): No binding; IC50 concentration (µM), WT eIF1A (eIF1A; [3]): No binding"
CN1CCN(S(=O)(=O)c2ccc(N3Cc4cc5c(cc4C4(CCCC4)C3)OCCO5)nc2)CC1 [1Ai-3564],15,1,0.8515,0.9853,0.8932,0.9434,0.942,1,1.142,1.206,0.4649,1.044 and 1,1.239 and 0.9891,1.143 and 0.9513,1.209 and 0.9045,1.156 and 0.8599,1.357 and 1.021,1.557 and 1.107,1.6 and 1.164,1.73 and 1.413,"RPS10 fluorescence ratio to control (RPS10; 1Ai conc. 1 uM): 0.9657; RPS10 IC50 (RPS10): No binding; IC50 concentration (µM), RPS10 (RPS10; [3]): No binding; fluorescence ratio, eIF1A (eIF1A; 1Ai conc. 0.5 uM): 1.089 and 1.095; IC50 (eIF1A; [4]): 35.2 µM; IC50 (eIF1A; [5]): 35.3 µM"
O=C(COc1ccccc1[N+](=O)[O-])NCc1ccc(-c2ccc(Br)cc2)o1 [1Ai-4700],11,1,0.9948,1.071,0.9943,0.904,0.762,0.6123,0.5202,0.4416,0.7947,1.051 and 0.9016,1.126 and 0.8562,1.098 and 0.832,1.037 and 0.7686,0.8525 and 0.6514,0.7753 and 0.6291,0.583 and 0.5184,0.4409 and 0.3702,0.3305 and 0.2635,"RPS10 fluorescence ratio to control (RPS10; 1Ai conc. 1 uM): 1.113; IC50 (RPS10; [6]): 4.9 µM; IC50 (RPS10; read-out: RPS10 IC50): 4.9 µM; IC50 (RPS10; [7]): 4.9 µM; fluorescence ratio, eIF1A (eIF1A; 1Ai conc. 0.5 uM): 1.104 and 0.9037; IC50 (eIF1A; [4]): 20.9 µM; IC50 (eIF1A; [5]): 20.9 µM"
O=C(C=Cc1ccc(Cl)s1)Nc1cccc2ncccc12 [1Ai-4860],23,0.9517,0.9517,0.9408,0.8788,0.814,0.7263,0.7395,0.7335,0.5649,1.03,1.378 and 0.7463,1.444 and 0.7972,1.487 and 1.19,1.443 and 1.135,0.951 and 1.007,1.0935 and 0.6993,1.055 and 0.7323,1.155 and 0.874,1.071 and 0.7793,"RPS10 fluorescence ratio to control (RPS10; 1Ai conc. 1 uM): 0.8947; RPS10 IC50 (RPS10): No binding; IC50 concentration (µM), RPS10 (RPS10; [3]): No binding; fluorescence ratio, eIF1A (eIF1A; 1Ai conc. 0.5 uM): 1.41 and 0.8167; WT eIF1A IC50 (eIF1A): No binding; IC50 concentration (µM), WT eIF1A (eIF1A; [3]): No binding"
COc1ccc(C=C2CSc3ccc(Cl)cc3C2=O)cc1O [1Ai-5175],16,0.6015,0.7077,1.156,1.025,0.4718,0.1497,0.1533,0.2655,0.2335,1.243,0.9293 and 0.8251,0.9705 and 0.8212,0.5643 and 0.7297,0.4919 and 0.7019,0.4802 and 0.6176,0.3895 and 0.4949,0.3105 and 0.4413,0.2231 and 0.3132,0.1792 and 0.2884,"RPS10 fluorescence ratio to control (RPS10; 1Ai conc. 1 uM): 1.288; IC50 (RPS10; [6]): 6.7 µM; IC50 (RPS10; read-out: RPS10 IC50): 6.7 µM; IC50 (RPS10; [7]): 6.7 µM; fluorescence ratio, eIF1A (eIF1A; 1Ai conc. 0.5 uM): 0.9438 and 0.8466; IC50 (eIF1A; [4]): 6.02 µM; IC50 (eIF1A; [5]): 6 µM"
Cc1ccc(C(=O)c2cc(O)c(O)c([N+](=O)[O-])c2)cc1 [1Ai-5576],24,1.2176,1.045,1.319,1.348,0.4488,0.3698,0.4065,0.1627,0.3279,0.8188,0.7537 and 0.6505,0.6232 and 0.5058,0.6427 and 0.4189,0.6101 and 0.3891,0.5237 and 0.3506,0.4763 and 0.3127,0.3344 and 0.3594,0.3785 and 0.2952,0.2822 and 0.2602,"RPS10 fluorescence ratio to control (RPS10; 1Ai conc. 1 uM): 1.349; IC50 (RPS10; [6]): 7.4 µM; IC50 (RPS10; read-out: RPS10 IC50): 7.4 µM; IC50 (RPS10; [7]): 7.4 µM; fluorescence ratio, eIF1A (eIF1A; 1Ai conc. 0.5 uM): 0.6672 and 0.6249; IC50 (eIF1A; [4]): 0.926 µM; IC50 (eIF1A; [5]): 0.9 µM"
CN(C)CC1CCn2cc(c3ccccc32)C2=C(C(=O)NC2=O)c2cn(c3ccccc23)CCO1 (centres unmarked) [1Ai-5662],25,0.8917,1.048,0.8646,0.7525,0.6979,0.6531,0.6137,0.4569,0.295,3.065,0.7967 and 0.9449,0.7317 and 0.9217,1.065 and 0.7855,1.002 and 0.7942,0.774 and 0.658,0.5642 and 0.6667,0.2341 and 0.4609,0.1593 and 0.2928,0.1171 and 0.07826,"RPS10 fluorescence ratio to control (RPS10; 1Ai conc. 1 uM): 0.937; RPS10 IC50 (RPS10): No binding; IC50 concentration (µM), RPS10 (RPS10; [3]): No binding; fluorescence ratio, eIF1A (eIF1A; 1Ai conc. 0.5 uM, listed as 5662): 0.8569 and 0.971; IC50 (eIF1A; [4]): 20.9 µM; IC50 (eIF1A; [5]): 20.9 µM"
